# Assay results published in paper PMC3356383, “Efficacious Intermittent Dosing of a Novel JAK2 Inhibitor in Mouse Models of Polycythemia Vera” (PLoS ONE, 2012).
# Marks after values point to notes of the source that are not given here.
# What was measured:
# [1] = system: spleen cell populations; assay: Cell populations in spleen of normal mice; format: in vivo; conditions: 54 mpk; for Spleen B-Cells B220+ / Spleen Cell Count / Spleen Myeloid Gr-1+ CD11b+ / Spleen NK-Cells NK1.1+ NKG2D+ / Spleen T-Cells CD4+ / Spleen T-Cells CD8+ / Spleen T-Cells Tregs CD25+CD127^lo / Spleen Weight / Spleen B-Cells MZ-B-cells CD21^hiCD23^lo: normal mice
# Experimental: Cells were stained in PBS, 0.5% BSA with antibodies for 15 min on ice. Stained cells were acquired on a 4-laser LSR-II (BD Biosciences) and data analyzed using FlowJo software (Treestar). Dead cells were labeled with the blue fluorescent LIVE/DEAD reactive dye (Invitrogen) and excluded from the analysis.
# Monoclonal antibodies (anti-mouse): CD3, CD4, CD5, CD8, CD11b, CD19, CD21/35, CD23, CD25, CD43, CD44, CD49b, CD69, CD71, CD93, CD117, B220, GR-1, IgD, NK1.1, NKG2A/C/E, NKG2D, Ter119 were purchased from BD Biosciences; CD4, CD8, CD49b, CD62L, TCRβ, TCRγδ from eBioscience; GR-1 from Invitrogen; CD43 from Miltenyi Biotec. Goat anti-mouse IgM-FITC, (μ chain specific) from Jackson Immuno Research.
# JAK2 and its family members JAK1 and JAK3 are known to signal downstream of cytokines that play essential roles in the development of lymphoid cell populations. To examine more thoroughly the effects of JAK2 inhibition on lymphoid cells, we analyzed wild-type (C57BL/6) mice treated with 54 mpk MRLB-11055 for 3 days, 6 days or up to 5 cycles of 3 days (“on”) followed by a 4 day holiday (“off”).
# Supplementary file pone.0037207.s004.doc: Table S2 Effect of MRLB-11055 on Cell Populations in Spleen of Normal Mice. Cell counts measured by Advia. Cycles refer to 3 days of treatment followed by a 4 day holiday. *p<0.05 in Student T test when comparing vehicle 5 cycle with treatment 5 cycle and vehicle 2 cycle with treatment 2 cycle, resp. (DOC) Click here for additional data file.
# [2] = system: lung epithelial cancer cell lines, including H2122 cells; assay: Cell proliferation of several lung epithelial cancer cell lines; format: cell-based; conditions: on average
# Experimental: Cell proliferation was measured by ViaLight (Lonza Group Ltd) assay as follows. Cells (1000–2000) were seeded into 384-well plates and incubated 16 hours @ 37°C, 5% CO2. […] Cells were lysed and ATP detected as per the manufacturer protocol.
# [3] = system: 220 recombinant kinases; assay: Kinase profiling (Millipore), whole panel; format: biochemical; conditions: 198 of 220 tested kinases; based on JAK2 (JH1-JH2) IC50
# Experimental: (§1) Kinase profiling was conducted by Millipore (Billerica, MA).
# [4] = system: Lyn; assay: Kinase profiling (Millipore); format: biochemical; conditions: IC50s measured at ATP Km, fold increase relative to JAK2
# Experimental: as §1
# (§2) Supplementary file pone.0037207.s003.doc: Table S1 Recombinant Kinase Selectivity Profile of MRLB-11055. IC50s measured at ATP Km, and fold increase relative to JAK2 is reported. (DOC) Click here for additional data file.
# [5] = system: CaMKIIγ; assay: Kinase profiling (Millipore); format: biochemical; conditions: IC50s measured at ATP Km, fold increase relative to JAK2
# Experimental: as §1, §2
# [6] = system: ARK5; assay: Kinase profiling (Millipore); format: biochemical; conditions: IC50s measured at ATP Km, fold increase relative to JAK2
# Experimental: as §1, §2
# [7] = system: TrkA; assay: Kinase profiling (Millipore); format: biochemical; conditions: IC50s measured at ATP Km, fold increase relative to JAK2
# Experimental: as §1, §2
# [8] = system: PRK2; assay: Kinase profiling (Millipore); format: biochemical; conditions: IC50s measured at ATP Km, fold increase relative to JAK2
# Experimental: as §1, §2
# [9] = system: Hck; assay: Kinase profiling (Millipore); format: biochemical; conditions: IC50s measured at ATP Km, fold increase relative to JAK2
# Experimental: as §1, §2
# [10] = system: BTK; assay: Kinase profiling (Millipore); format: biochemical; conditions: IC50s measured at ATP Km, fold increase relative to JAK2
# Experimental: as §1, §2
# [11] = system: PTK5; assay: Kinase profiling (Millipore); format: biochemical; conditions: IC50s measured at ATP Km, fold increase relative to JAK2
# Experimental: as §1, §2
# [12] = system: Fyn; assay: Kinase profiling (Millipore); format: biochemical; conditions: IC50s measured at ATP Km, fold increase relative to JAK2
# Experimental: as §1, §2
# [13] = system: MLK1; assay: Kinase profiling (Millipore); format: biochemical; conditions: IC50s measured at ATP Km, fold increase relative to JAK2
# Experimental: as §1, §2
# [14] = system: CaMKIIδ; assay: Kinase profiling (Millipore); format: biochemical; conditions: IC50s measured at ATP Km, fold increase relative to JAK2
# Experimental: as §1, §2
# [15] = system: Flt3; assay: Kinase profiling (Millipore); format: biochemical; conditions: IC50s measured at ATP Km, fold increase relative to JAK2
# Experimental: as §1, §2
# [16] = system: Fgr; assay: Kinase profiling (Millipore); format: biochemical; conditions: IC50s measured at ATP Km, fold increase relative to JAK2
# Experimental: as §1, §2
# [17] = system: Fms; assay: Kinase profiling (Millipore); format: biochemical; conditions: IC50s measured at ATP Km, fold increase relative to JAK2
# Experimental: as §1, §2
# [18] = system: Bmx; assay: Kinase profiling (Millipore); format: biochemical; conditions: IC50s measured at ATP Km, fold increase relative to JAK2
# Experimental: as §1, §2
# [19] = system: TrkB; assay: Kinase profiling (Millipore); format: biochemical; conditions: IC50s measured at ATP Km, fold increase relative to JAK2
# Experimental: as §1, §2
# [20] = system: Arg; assay: Kinase profiling (Millipore); format: biochemical; conditions: IC50s measured at ATP Km, fold increase relative to JAK2
# Experimental: as §1, §2
# [21] = system: ACK1; assay: Kinase profiling (Millipore); format: biochemical; conditions: IC50s measured at ATP Km, fold increase relative to JAK2
# Experimental: as §1, §2
# [22] = system: Lck; assay: Kinase profiling (Millipore); format: biochemical; conditions: IC50s measured at ATP Km, fold increase relative to JAK2
# Experimental: as §1, §2
# [23] = system: cSRC; assay: Kinase profiling (Millipore); format: biochemical; conditions: IC50s measured at ATP Km, fold increase relative to JAK2
# Experimental: as §1, §2
# [24] = system: Yes; assay: Kinase profiling (Millipore); format: biochemical; conditions: IC50s measured at ATP Km, fold increase relative to JAK2
# Experimental: as §1, §2
# [25] = system: Ret; assay: Kinase profiling (Millipore); format: biochemical; conditions: IC50s measured at ATP Km, fold increase relative to JAK2
# Experimental: as §1, §2
# [26] = 6 days of continuous treatment, wild-type C57BL/6 mice
# [27] = 2 cycles (3 days treatment, 4 day holiday)
# [28] = 5 cycles (3 days treatment, 4 day holiday)
structure (smiles),measurement,setting,value
NC(=O)c1cnc(N[C@H](C2CC2)C(F)(F)F)c2c1[nH]c1cc(-c3cnc(N)nc3)ccc12 [MRLB-11055],Decrease of splenic B220+ B-cells,[1]; [26],2 fold
same,Decrease of splenic NK1.1+ cells,[1]; [26],25 fold
same,Reduction of any of the splenic lymphocytes tested,"[1]; intermittent dosing, 5 cycles of 3 days on and 4 days off",≤ 2 fold
same,Spleen B-Cells B220+,[1]; [27],30.9 ± 2.2 X10^6
same,Spleen Cell Count,[1]; [27],53.2 ± 1.2 X10^6
same,Spleen Myeloid Gr-1+ CD11b+,[1]; [27],0.67 ± 0.17 X10^6
same,Spleen NK-Cells NK1.1+ NKG2D+,[1]; [27],1.2 ± 0.2* X10^6
same,Spleen T-Cells CD4+,[1]; [27],6.5 ± 1.0* X10^6
same,Spleen T-Cells CD8+,[1]; [27],4.0 ± 0.4* X10^6
same,Spleen T-Cells Tregs CD25+CD127^lo,[1]; [27],0.4 ± 0.1 * X10^6
same,Spleen Weight,[1]; [27],76.3 ± 4.7 mg
same,Spleen B-Cells B220+,[1]; [28],31.2 ± 6.9 X10^6
same,Spleen B-Cells MZ-B-cells CD21^hiCD23^lo,[1]; [28],1.7 ± 0.4* X10^6
same,Spleen Cell Count,[1]; [28],59.4 ± 20.3 X10^6
same,Spleen Myeloid Gr-1+ CD11b+,[1]; [28],1.05 ± 0.76 X10^6
same,Spleen NK-Cells NK1.1+ NKG2D+,[1]; [28],0.9 ± 0.3* X10^6
same,Spleen T-Cells CD4+,[1]; [28],7.9 ± 1.9* X10^6
same,Spleen T-Cells CD8+,[1]; [28],4.9 ± 1.1* X10^6
same,Spleen T-Cells Tregs CD25+CD127^lo,[1]; [28],0.6 ± 0.2* X10^6
same,Spleen Weight,[1]; [28],92.5 ± 29.8 mg
same,Spleen B-Cells B220+,[1]; 3 days,24.2 ± 6.2* X10^6
same,Spleen B-Cells MZ-B-cells CD21^hiCD23^lo,[1]; 3 days,0.2 ± 0.2* X10^6
same,Spleen Cell Count,[1]; 3 days,36.2 ± 8.7* X10^6
same,Spleen Myeloid Gr-1+ CD11b+,[1]; 3 days,0.25 ± 0.13* X10^6
same,Spleen NK-Cells NK1.1+ NKG2D+,[1]; 3 days,0.10 ± 0.03* X10^6
same,Spleen T-Cells CD4+,[1]; 3 days,4.9 ± 0.8* X10^6
same,Spleen T-Cells CD8+,[1]; 3 days,4.7 ± 1.1* X10^6
same,Spleen T-Cells Tregs CD25+CD127^lo,[1]; 3 days,0.3 ± 0.1* X10^6
same,Spleen Weight,[1]; 3 days,50.5 ± 4.4* mg
same,Spleen B-Cells B220+,[1]; 6 days,16.9 ± 8.7* X10^6
same,Spleen B-Cells MZ-B-cells CD21^hiCD23^lo,[1]; 6 days,0.2 ± 0.2* X10^6
same,Spleen Cell Count,[1]; 6 days,26.5 ± 3.1* X10^6
same,Spleen Myeloid Gr-1+ CD11b+,[1]; 6 days,0.22 ± 0.09* X10^6
same,Spleen NK-Cells NK1.1+ NKG2D+,[1]; 6 days,0.07 ± 0.04* X10^6
same,Spleen T-Cells CD4+,[1]; 6 days,4.1 ± 1.7* X10^6
same,Spleen T-Cells CD8+,[1]; 6 days,3.2 ± 1.5* X10^6
same,Spleen T-Cells Tregs CD25+CD127^lo,[1]; 6 days,0.2 ± 0.1* X10^6
same,Spleen Weight,[1]; 6 days,45.8 ± 7.6* mg
same,"Proliferation IC50 of lung epithelial cancer cell lines, fold higher than for JAK2-dependent cell lines",[2],50–70 fold
same,Fold selectivity over JAK2 for 198/220 kinases,[3],>25-fold over JAK2
same,"Fold-Shift /JAK2, Lyn",[4],4 fold
same,"Fold-Shift /JAK2, CaMKIIγ",[5],11 fold
same,"Fold-Shift /JAK2, ARK5",[6],6 fold
same,"Fold-Shift /JAK2, TrkA",[7],1 fold
same,"Fold-Shift /JAK2, PRK2",[8],13 fold
same,"Fold-Shift /JAK2, Hck",[9],3 fold
same,"Fold-Shift /JAK2, BTK",[10],7 fold
same,"Fold-Shift /JAK2, PTK5",[11],8 fold
same,"Fold-Shift /JAK2, Fyn",[12],2 fold
same,"Fold-Shift /JAK2, MLK1",[13],18 fold
same,"Fold-Shift /JAK2, CaMKIIδ",[14],10 fold
same,"Fold-Shift /JAK2, Flt3",[15],3 fold
same,"Fold-Shift /JAK2, Fgr",[16],5 fold
same,"Fold-Shift /JAK2, Fms",[17],2 fold
same,"Fold-Shift /JAK2, Bmx",[18],4 fold
same,"Fold-Shift /JAK2, TrkB",[19],8 fold
same,"Fold-Shift /JAK2, Arg",[20],17 fold
same,"Fold-Shift /JAK2, ACK1",[21],2 fold
same,"Fold-Shift /JAK2, Lck",[22],5 fold
same,"Fold-Shift /JAK2, cSRC",[23],1 fold
same,"Fold-Shift /JAK2, Yes",[24],7 fold
same,"Fold-Shift /JAK2, Ret",[25],3 fold
